From paper PMC9804910 (Chembiochem, 2022)

Tests used:
[1] = tested on: several cancer cell lines; parameters: method as in PMID 32319768; settings: cited from earlier work
[2] = tested on: CT‐26 (mouse colon adenocarcinoma); experiment: Fluorometric cell viability assay (Resazurin), 2D monolayer; type: cell-based; settings: for IC50: CT‐26, 48 h
Description: (§1) The first step toward the biological investigation of complexes 3–8 was the evaluation of cell viability in monolayer cultures of CT‐26 (mouse colon adenocarcinoma), PC‐3 (human prostate adenocarcinoma), and RPE‐1 (human normal retina pigmented epithelial) cell lines using a fluorometric cell viability assay with the Resazurin reagent. Cisplatin and 1 were tested in the same cell lines as positive and additional controls.
(§2) Cell cultures: The CT‐26 cell line was cultured in DMEM media (Gibco) supplemented with 10 % foetal calf serum (Gibco) and 1 % penicillin‐streptomycin antibiotic (Gibco). The PC‐3 cell line was cultured in F12‐K media (Gibco) supplemented with 10 % foetal calf serum (Gibco) and 1 % Penicillin‐Streptomycin antibiotic (Gibco). The RPE‐1 cell line was cultured in DMEM/F‐12 media (Gibco) supplemented with 10 % foetal calf serum and 1 % Penicillin‐Streptomycin antibiotic (Gibco). Cell lines were maintained in a humidified atmosphere at 37 °C with 5 % CO2.
(§3) Cytotoxicity assay using a 2D cellular model: The cytotoxicity of the tested Ru complexes was assessed by a fluorometric cell viability assay using Resazurin (Acros Organics). Briefly, cells were seeded in triplicate in 96‐well plates at a 4×10^3 cells/ well density in 100 μL. After 24 h, cells were treated with increasing concentrations of the ruthenium complexes and controls. Dilutions for complexes 3–8 were prepared as follows: 10 mM stock solution in DMSO was diluted to 100–0.01 μM with medium. After 48 h of incubation, the medium was removed, and 100 μL of complete medium containing resazurin (0.2 mg/mL final concentration) was added. After 4 h of incubation at 37 °C, the fluorescence signal of the resorufin product was read (ex 540 nm, em 590 nm) in an Infinite 200 PRO Microplate Reader from TECAN. IC50 values were then calculated using GraphPad Prism software.

[3] = tested on: RPE‐1 (human normal retina pigmented epithelial); experiment: as above; type: cell-based; settings: RPE‐1, 48 h
Description: as §1, §2, §3

[4] = tested on: PC‐3 (human prostate adenocarcinoma); experiment: as above; type: cell-based; settings: PC‐3, 48 h
Description: as §1, §2, §3

CT‐26 cells [5] = experiment: Mito stress test (Seahorse, oxygen consumption rate); type: cell-based, mouse; settings: CT‐26, 24 h treatment; 1 (1 μM), 3 (5 μM), 4 (0.5 μM), 5 (10 μM), 6 (25 μM), 7 (10 μM), 8 (25 μM)
Description: To further study the mechanism of action of complexes 3–8, their influence on the cellular metabolism of CT‐26 cells was investigated. Figure 6 represents the Mito stress test profile after 24 h of treatment; the oxygen consumption rate (OCR) changes with specific electron‐transport chain inhibitors. Oligomycin (inhibitor of ATP synthase (complex V)), FCCP (uncoupling agent), antimycin‐A (complex III inhibitors), and rotenone (complex I inhibitor) were employed in this study. In general, both cationic compounds 4 and 7 affected the mitochondrial processes. It is evident from the low basal respiration and the inhibition of ATP production compared to untreated cells (orange dots) that the mitochondrial membrane of the cells treated with such complexes lost the capacity to restore the proton balance when treated with an uncoupling agent (FCCP). The maximal respiration (the OCR value when the mitochondrial membrane is uncoupled) and spare respiratory capacity (difference in the OCR values between maximal respiration and basal respiration) of the cells were reduced compared to those of untreated cells (Figure 6). […] The results with complex 4 are consistent with its measured large mitochondrial uptake (see above).
Metabolic studies: mito stress test: CT‐26 cells were seeded in Seahorse XFe 96‐ well plates at a density of 20 000 cells/well in 80 μL of the medium. After 24 h, the medium was replaced with fresh medium, and either complex 1 (1 μM), 3 (5 μM), 4 (0.5 μM), 5 (10 μM), 6 (25 μM), 7 (10 μM), or 8 (25 μM) was added. After 24 h of incubation, the regular medium was removed, and cells were washed three times using Seahorse base media and incubated in a non‐CO2 incubator at 37 °C for 1 h. A Mito stress assay was run using 1 μM oligomycin, 1 μM FCCP, and a mixture of 1 μM antimycin‐A/1 μM rotenone in ports A−C, respectively, using a Seahorse XFe96 extracellular flux analyser.

[6] = Stability in human plasma (UV-Vis and HPLC); type: in vitro ADME; settings: 37 °C
Description: The biological activity of anticancer drugs candidates is strongly influenced by their stability in DMSO, medium cell culture, and human plasma. For this reason, we performed stability studies of complexes 3–8 at 37 °C in DMSO and DMEM medium (Gibco) (Supporting Information Figures S1 ‐ S2). […] Finally, the stability of the compounds was investigated by incubating them in human plasma at 37 °C for 48 h, followed by UV‐Vis and HPLC analysis. […] After 48 h, only 15 % of the complex was still intact, as observed by HPLC (Supporting Information Figure S5).
Stock solutions of each complex (2 mM) and caffeine (2 mM) were prepared in dimethyl sulfoxide. 50 μL of both stock solutions (complex and caffeine) were added to 400 μL of human plasma, achieving 500 μL. The resulting solutions were incubated upon continuous gentle shaking (ca. 300 rpm) for 48 h at 37 °C. After this time, the incubation was ended by adding 1 mL of methanol. The mixture was centrifuged for 45 min at 3000 rpm and 4 °C. The solution was filtered through a 0.2 μm membrane filter and submitted to HPLC analysis, that were carried out on a Jupiter Proteo column (250×4.6 mm, 4 μm, flow rate: 1 mL/min). The solvents (HPLC grade) were Millipore water (solvent A) and acetonitrile (solvent B). […] The flow rate was 1 mL min^−1, and the chromatogram was detected at 215 nm.

HeLa cells = tested on: HeLa cells; parameters: method as in PMID 32065454; settings: cited from earlier work
different tumour cells = tested on: different tumour cells; parameters: method as in PMID 17199281; settings: cited from earlier work
CT‐26 cells [7] = experiment: Cellular fractionation (mitochondria and nucleus isolation, Ru content); type: cell-based, mouse; settings: CT‐26, 5 μM, 4 h
Description: Additionally, we choose the best candidate from the cytotoxicity experiments, namely [Ru(DIP)2(η^2‐acac)]Cl (4), to explore its cellular localisation. For this, we performed cellular fractionation experiments to ascertain in which organelle it localizes.
Sample preparation for cellular fractionation: CT‐26 cells were seeded in three 15 cm^2 cell culture dishes and cells were 90 % confluent on the day of treatment. On the day of treatment, cells were incubated with the target complex at a concentration of 5 μM for 4 h, then the medium was removed and the cells were washed, collected, and counted. After re‐suspension in cold PBS, the organelles were isolated by using different protocols (one cell culture dish per isolation was used).
Mitochondria and nucleus isolation : To isolate mitochondria, a Mitochondria Isolation Kit (Cat. Nr: MITOISO2, SigmaAldrich) and Nucleus Isolation Kit (NUC‐101) were used according to the manufacturer procedure for the isolation of mitochondria via homogenization method.

CT‐26 cells [8] = experiment: ICP‐MS cellular uptake; type: cell-based, mouse
Description: The cellular uptake of the complexes 3–8 was then investigated in CT‐26 cells by determining the amount of Ru inside the cells using inductively coupled plasma mass spectrometry (ICP‐MS) after 2 h of incubation at 5 μM. […] This is most probably due to the higher lipophilicity of the DIP ligand compared to phen. […] In contrast, the neutral complexes with the DIP ligand (3 and 5) present a lower uptake (ca. 50 %) compared the phen analogues 6 and 8. This observation is rather counter‐intuitive since compounds 3 and 5 have a higher cytotoxicity than 6 and 8. The lower uptake of the DIP complexes 3 and 5 might be due to the lower solubility of these complexes in the cell culture medium. However, taken together, the uptake and cytotoxicity data imply that 3 and 5 have a higher specific cytotoxic activity compared to the phen analogues 6 and 8, reasonably attributable to their higher lipophilicity.
ICP‐MS cellular uptake studies: CT‐26 cells were seeded at a density of 1×10^6. The next day, cells were treated with 5 μM of the corresponding complex diluted in the cell culture medium from a 10 mM stock solution in DMSO. After 2 h, cells were collected, counted, and stored at −80 °C. ICP‐MS samples were prepared as follows: samples were digested using 70 % nitric acid (1 mL, 60 °C, overnight) and then further diluted 1 : 100 (1 % HCl solution in MQ water) analysed using ICP‐MS. All ICP‐MS measurements were performed on an Agilent 7900 Quadrupole ICP‐MS located at the Institut de Physique du Globe de Paris (France). The monitored isotopes are 99 and 101 Ru. Daily, before the analytical sequence, an indium internal‐standard was injected after inline mixing with the samples to correct for signal drift and matrix effects. A set of calibration standards was analysed to confirm and model (through simple linear regression) the linear relationship between signal and concentration. The model was then used to convert measured sample counts to concentrations. Reported uncertainties were calculated using error propagation equations and considering the combination of standard deviation on replicated consecutive signal acquisitions (n=3), internal‐standard ratio and blank subtraction. The non‐linear term (internal‐standard ratio) was linearized using a first‐order Taylor series expansion to simplify error propagation. The amount of metal detected in the cell samples was transformed from ppb to μg of metal. Data were subsequently normalized to the number of cells and expressed as μmol of metal/number of cells.

cancer cells = tested on: cancer cells; parameters: method as in PMID 25313823; settings: 2 h incubation; cited from earlier work

Row | IC50 [2] [µM] | IC50 [4] [µM] | Compound | IC50 [3] [µM] | other results
1 |  |  | [Ru(DIP)2(sq)](PF6) [Compound 2] |  | cytotoxicity [1]: nanomolar concentration range
2 | 10.3 ± 0.74 | > 100 | CC(=O)C=C(C)[O-].[Cl-].[Ru+2].c1cnc2c(c1)ccc1cccnc12.c1cnc2c(c1)ccc1cccnc12 [Compound 7, [Ru(phen)2(η^2‐acac)]Cl] | > 100 | effect on mitochondrial respiration (basal respiration, OCR profile) vs untreated cells (CT‐26 cells [5]): severe impairment of mitochondrial respiration
3 | > 100 | > 100 | O=C([O-])CC(=O)[O-].[Ru+2].c1cnc2c(c1)ccc1cccnc12.c1cnc2c(c1)ccc1cccnc12 [Compound 6, [Ru(phen)2(η^2‐mal)]] | > 100 | stability in human plasma (UV‐vis spectra and HPLC chromatograms before and after incubation) ([6]; 48 h): chemical transformation; complex still intact (HPLC) ([6]; after 48 h): 15%
4 | 0.37 ± 0.12 | 1.84 ± 0.23 | Cc1occc(=O)c1[O-].F[P-](F)(F)(F)(F)F.[Ru+2].c1ccc(-c2ccnc3c2ccc2c(-c4ccccc4)ccnc23)cc1.c1ccc(-c2ccnc3c2ccc2c(-c4ccccc4)ccnc23)cc1 [Compound 1, [Ru(DIP)2(mlt)](PF6), reference compound] | 0.67 ± 0.14 | subcellular accumulation (HeLa cells): accumulate more in the nucleus than in mitochondria; effect on mitochondrial respiration (basal respiration, OCR profile) vs untreated cells (CT‐26 cells [5]): severe impairment of mitochondrial respiration
5 |  |  | [Ru+2].c1ccc(-c2ccnc3c2ccc2c(-c4ccccc4)ccnc23)cc1.c1ccc(-c2ccnc3c2ccc2c(-c4ccccc4)ccnc23)cc1.c1ccc2nc3c4cccnc4c4ncccc4c3nc2c1 [[Ru(DIP)2(dppz)]^2+] |  | inhibition against tumour cells (different tumour cells): low inhibition
6 | 0.41 ± 0.1 | 0.62 ± 0.19 | CC(=O)C=C(C)[O-].[Cl-].[Ru+2].c1ccc(-c2ccnc3c2ccc2c(-c4ccccc4)ccnc23)cc1.c1ccc(-c2ccnc3c2ccc2c(-c4ccccc4)ccnc23)cc1 [Compound 4, [Ru(DIP)2(η^2‐acac)]Cl] | 0.5 ± 0.12 | selectivity towards CT‐26 and PC‐3 cancer cell lines compared to healthy cell line RPE‐1 ([2]; from IC50 values, 48 h): no selectivity; fraction detected in the nucleus (of the total amount of Ru) (CT‐26 cells [7]): ca. 10%; localization in mitochondria (of the total amount of Ru) (CT‐26 cells [7]): ca. 50%; effect on mitochondrial respiration (basal respiration, OCR profile) vs untreated cells (CT‐26 cells [5]): severe impairment of mitochondrial respiration; cellular uptake compared to neutral DIP complexes 3 and 5 (CT‐26 cells [8]; CT‐26): at least three times larger; cellular uptake compared to phen counterpart 7 (CT‐26 cells [8]; CT‐26, 5 μM, 2 h): almost three times larger; cellular uptake compared to reference complex 1 (CT‐26 cells [8]; CT‐26, 5 μM, 2 h): ca. three times larger; cellular uptake (amount of Ru inside the cells) (CT‐26 cells [8]; CT‐26, 5 μM, 2 h incubation): most significant uptake
7 | > 100 | > 100 | O=C([O-])C(=O)[O-].[Ru+2].c1cnc2c(c1)ccc1cccnc12.c1cnc2c(c1)ccc1cccnc12 [Compound 8, [Ru(phen)2(η^2‐ox)]] | > 100 | 
8 |  |  | [Ru(bpy)(phpy)(dppz)]^+ |  | complex accumulated in nuclei (cancer cells): ~90%
9 | 5.63 ± 0.34 | 4.92 ± 0.33 | [Ru(DIP)2(η^2‐mal)] [Compound 3] | 5 ± 0.7 | lower uptake compared to the phen analogues 6 and 8 (CT‐26 cells [8]; CT‐26, 5 μM, 2 h): ca. 50%
10 | 24.1 ± 2.5 | 21.1 ± 2.29 | O=C([O-])C(=O)[O-].[Ru+2].c1ccc(-c2ccnc3c2ccc2c(-c4ccccc4)ccnc23)cc1.c1ccc(-c2ccnc3c2ccc2c(-c4ccccc4)ccnc23)cc1 [Compound 5, [Ru(DIP)2(η^2‐ox)]] | 14.5 ± 3 | lower uptake compared to the phen analogues 6 and 8 (CT‐26 cells [8]; CT‐26, 5 μM, 2 h): ca. 50%

Row | Compound | IC50 [2] [µM] | IC50 [4] [µM] | IC50 [3] [µM] | other results
11 | N.N.[Cl][Pt][Cl] [cisplatin, reference compound] | 1.94 ± 0.72 | 10.3 ± 1.14 | 20.1 ± 3.91 | 
